Earlier results in patent US8466198B2, “Compositions comprising creatine salts and methods of use thereof” (priority 2008, dated 2013).

CN(CC(=O)O)C(=N)N [Creatine]
average gain in athletic performance (creatine ingestion, depending on the measured variable): 10 to 15%

CN(CC(=O)O)C(=N)N.O [creatine monohydrate]
increase in body mass (first week of loading): 1-2 kilograms | improvement of maximal power/strength (short term supplementation): 5-15% | improvement of single effort sprint performance (short term supplementation): 1-5% | improvement of work performed during exercise of maximal effort muscle contractions (short term supplementation): 5-15% | improvement of work performed during repetitive sprint performance (short term supplementation): 5-15%
